target: T1, Axl (Homo sapiens, UniProt P30530); experiment: Phospho-Akt in-cell Western assay (inhibition of Axl activity, Axl-antibody cross-linking stimulation); assay type: cell-based; conditions: Hela cells, phospho-Akt readout; compounds of formula (Ia), Table 1
T1 construct: endogenous in cells; host or cells: HeLa cells
T1 sequence (P30530 26-894): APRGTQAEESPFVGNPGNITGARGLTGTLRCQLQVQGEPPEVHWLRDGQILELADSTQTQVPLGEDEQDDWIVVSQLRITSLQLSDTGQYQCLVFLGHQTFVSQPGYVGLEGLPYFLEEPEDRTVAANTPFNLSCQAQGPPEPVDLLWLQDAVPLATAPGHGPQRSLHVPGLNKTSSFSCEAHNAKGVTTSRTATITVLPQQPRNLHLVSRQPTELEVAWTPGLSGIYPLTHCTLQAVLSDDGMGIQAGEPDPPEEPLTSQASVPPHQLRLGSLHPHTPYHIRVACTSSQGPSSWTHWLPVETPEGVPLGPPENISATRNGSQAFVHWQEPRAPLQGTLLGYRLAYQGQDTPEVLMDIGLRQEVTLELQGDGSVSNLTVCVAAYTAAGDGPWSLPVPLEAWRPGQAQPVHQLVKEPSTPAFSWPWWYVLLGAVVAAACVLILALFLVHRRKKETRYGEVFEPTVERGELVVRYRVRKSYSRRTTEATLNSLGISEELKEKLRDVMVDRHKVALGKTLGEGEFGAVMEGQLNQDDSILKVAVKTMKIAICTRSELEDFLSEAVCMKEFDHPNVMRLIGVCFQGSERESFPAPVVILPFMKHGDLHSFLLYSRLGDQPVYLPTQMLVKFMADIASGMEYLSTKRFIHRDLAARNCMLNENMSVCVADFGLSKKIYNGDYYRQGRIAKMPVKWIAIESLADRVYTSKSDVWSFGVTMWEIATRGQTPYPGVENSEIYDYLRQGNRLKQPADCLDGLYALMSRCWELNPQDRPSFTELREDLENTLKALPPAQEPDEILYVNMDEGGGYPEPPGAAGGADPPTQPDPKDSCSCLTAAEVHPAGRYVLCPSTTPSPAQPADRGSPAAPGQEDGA
Description: The compounds of the invention were tested in the following assay for their ability to inhibit Axl activity.
Phospho-Akt in-Cell Western Assay
• Cell culture plate: 96 well assay plate (Corning 3610), white, clear bottom, tissue-culture treated. • Cells: Hela cells. • Starvation medium: For Axl stimulation: 0.5% FCS (fetal calf serum) in DMEM, plus Axl/Fc (extracellular domain of AXL fused to immunoglobulin Fc region) (R&D, 154-AL) 500 ng/mL. • For EGF (epidermal growth factor) stimulation: 0.5% FCS in DMEM (Dulbecco's modified Eagles medium). • Poly-L-Lysine 0.01% solution (the working solution): 10 μg/ml, dilute In PBS (phosphate buffered saline). • Axl antibody cross-linking: • 1st: Mouse anti-Axl (R&D, MAB154). • 2nd: Biotin-SP-conjugated AffiniPure goat anti-mouse IgG (H+L) (Jackson ImmunoResearch #115-065-003). • Fixing buffer: 4% formaldehyde in PBS. • Wash buffer: 0.1% TritonX-100 in PBS. • Quenching buffer: 3% H2O2, 0.1% Azide in wash buffer, Azide and hydrogen peroxide (H2O2) are added fresh. • Blocking buffer: 5% BSA in TBST (tris buffered saline plus 0.1% Tween 20). • Primary antibody: Rabbit anti-human Phospho-Akt antibody (Cell Signaling 9271): 1×250 diluted in blocking buffer. • Secondary antibody: HRP (horse radish peroxidase)-conjugated Goat anti-Rabbit secondary, stock solution: Jackson ImmunoResearch (Goat anti-Rabbit HRP, #111-035-144) 1:1 diluted in glycerol, store at −20° C. The working solution: 1×2000 dilution of stock in blocking buffer. • Chemiluminescent working solution (Pierce, 37030): SuperSignal ELISA (enzyme linked immunosorbant assay) Pico Chemiluminescent substrate. • Crystal Violet solution: Stock: 2.5% Crystal violet in methanol, filtered and kept at ambient temperature. The working solution: dilute the stock 1:20 with PBS immediately before use.
10% SDS: working solution: 5% SDS (sodium dodecylsulfate), diluted in PBS
A 96 well TC (tissue culture treated) plate was coated with 10 μg/mL poly-L-Lysine at 37° C. for 30 min, washed twice with PBS, and air-dried for 5 minutes before cells were added. Hela cells were seeded at 10,000 cells/well and the cells were starved in 100 μL starvation medium containing Axl/Fc for 24 hrs.
The cells were pre-treated with test compounds by adding 100 μL of 2× test compound to the starvation medium on the cells. The cells were incubated at 37° C. for 1 hr before stimulation.
The cells were stimulated by Axl-antibody cross-linking as follows: A 5×1st/2nd Axl antibody mixture was made (37.5 μg/mL 1st/100 μg/mL 2 nd) in starvation medium and nutated at 4° C. with thorough mixing for 1-2 hours for clustering. The resulting mix was warmed to 37° C. 50 μL of 5×Axl 1st/2nd of antibody cluster was added to the cells and the cells were incubated at 37° C. for 5 min.
After 5 minutes stimulation, the plate was flicked to remove medium and the plate was tapped onto paper towels. Formaldehyde (4.0% in PBS, 100 μL) was added to fix the cells and the cells were incubated at ambient temperature for 20 min without shaking.
The cells were washed with a plate washer buffer to remove the formaldehyde solution. The plate was flicked to removed excess wash buffer and tapped onto paper towels. Quenching buffer (100 μL) was added to each well and the cells were incubated at ambient temperature for 20 minutes without shaking.
The cells were washed with a plate washer buffer to remove the quenching buffer. Blocking buffer (100 μL) was added and the cells were incubated at ambient temperature for at least an hour with gentle shaking.
The cells were washed with a plate washer buffer and diluted primary antibody (50 μL) was added to each well (blocking buffer was added to the negative control wells instead). The plates were incubated overnight at 4° C. with gentle shaking.
The wash buffer was removed, diluted secondary antibody (100 μL) was added, and the cells were incubated at ambient temperature for 1 hour with gentle shaking. […]

Compared with `CCN(CC)C1CCN(c2ccc(Nc3nc(N)n(-c4ncnc5cc(OC)c(OC)cc45)n3)cn2)C1` (stereo not drawn) [compound 45, 1-(6,7-dimethoxy-quinazoline-4-yl)-N^3-(6-(3-diethyl-amino-pyrrolidin-1-yl)pyridin-3-yl)-1H-1,2,4-triazole-3,5-diamine], `COc1cc2ncnc(-n3nc(Nc4ccc(Br)nc4)nc3N)c2cc1OC` [compound 59, 1-(6,7-dimethoxy-quinazoline-4-yl)-N^3-(6-bromopyridin-3-yl)-1H-1,2,4-triazole-3,5-diamine] is higher in IC50: < 1 µM for the first, > 20 µM for the second. The first is the more potent here.

`Cc1csc2c(-n3nc(Nc4ccc(N5CCCN(C6CC7CCC6C7)CC5)nc4)nc3N)nc(Cl)nc12` (stereo not drawn) [compound 46, 1-(2-chloro-7-methylthieno [3,2-d]pyrimidin-4-yl)-N^3-(6-(4-(bicyclo[2.2.1]heptan-2-yl)-1,4-diazepan-1-yl)pyridin-3-yl)-1H-1,2,4-triazole-3,5-diamine] and `Cc1csc2c(-n3nc(Nc4ccc(N5CC6CN(C7CC8CCC7C8)CC6C5)nc4)nc3N)nc(Cl)nc12` (stereo not drawn) [compound 57, 1-(2-chloro-7-methylthieno [3,2-d]pyrimidine-4-yl)-N^3-(6-(5-bicyclo[2.2.1]heptan-2-yl-octahydropyrrol [3,4-c]pyrrolyl)pyridine-3-yl)-1H-1,2,4-triazole-3,5-diamine] cannot be ordered by IC50: < 1 µM for the first, < 1 µM for the second.

Going from `COc1cc2ncnc(-n3nc(Nc4ccc(N5CCCN(C6CC7CCC6C7)CC5)nc4)nc3N)c2cc1OC` (stereo not drawn) [compound 47, 1-(6,7-dimethoxy-quinazoline-4-yl)-N^3-(6-(4-(bicyclo [2.2.1]heptan-2-yl)-1,4-diazepan-1-yl)pyridin-3-yl)-1H-1,2,4-triazole-3,5-diamine] to `COc1cc2ncnc(-n3nc(Nc4cnc(N5CCC(N6CCCC6)CC5)nc4)nc3N)c2cc1OC` [compound 62, 1-(6,7-dimethoxy-quinazoline-4-yl)-N^3-(2-(4-pyrrolidin-1-ylpiperidin-1-yl)pyrimidin-5-yl)-1H-1,2,4-triazole-3,5-diamine], the IC50 rises from < 1 µM to > 20 µM.

`Cc1csc2c(-n3nc(Nc4ccc(N5CCN(CC6CC6)CC5)nc4)nc3N)nc(Cl)nc12` [compound 48, 1-(2-chloro-7-methylthieno [3,2-d]pyrimidin-4-yl)-N^3-(6-(4-cyclopropyl-methyl-piperazin-1-yl)pyridin-3-yl)-1H-1,2,4-triazole-3,5-diamine] and `Cc1csc2c(-n3nc(Nc4cnc5c(c4)CN(C4CCCC4)CC5)nc3N)nc(Cl)nc12` [compound 52, 1-(2-chloro-7-methylthieno [3,2-d]pyrimidine-4-yl)-N^3-(6-cyclopentyl-5,6,7,8-tetrahydro-1,6-naphthyridin-3-yl)-1H-1,2,4-triazole-3,5-diamine] cannot be ordered by IC50: < 1 µM for the first, < 1 µM for the second.

`Nc1nc(Nc2ccc(N3CCN(CC4CC4)CC3)nc2)nn1-c1ccc(C(F)(F)F)cn1` [compound 49, 1-(5-trifluoro-methylpyridin-2-yl)-N^3-(6-(4-cyclopropyl-methyl-piperazin-1-yl)pyridin-3-yl)-1H-1,2,4-triazole-3,5-diamine] and `Cc1cc(Nc2nc(N)n(-c3nccc4occc34)n2)cnc1N1CCC(N2CCCC2)CC1` [compound 53, 1-(furo[3,2-c]pyridine-4-yl)-N^3-(6-(4-(pyrrolidin-1-yl)piperidin-1-yl)-5-methylpyridin-3-yl)-1H-1,2,4-triazole-3,5-diamine] cannot be ordered by IC50: < 1 µM for the first, < 1 µM for the second.

`Cc1csc2c(-n3nc(Nc4cnc5c(c4)CN(CCN(C)C)CC5)nc3N)nc(Cl)nc12` [compound 50, 1-(2-chloro-7-methylthieno [3,2-d]pyrimidine-4-yl)-N^3-(6-(2-dimethyl-aminoethyl)-5,6,7,8-tetrahydro-1,6-naphthyridin-3-yl)-1H-1,2,4-triazole-3,5-diamine] and `Cc1csc2c(-n3nc(Nc4cnc5c(c4)CN(C(=O)C4CCN(C)CC4)CC5)nc3N)nc(Cl)nc12` [compound 61, 1-(2-chloro-7-methylthieno [3,2-d]pyrimidin-4-yl)-N^3-(6-(1-methyl-piperidin-4-ylcarbonyl)-5,6,7,8-tetrahydro-1,6-naphthyridin-3-yl)-1H-1,2,4-triazole-3,5-diamine] cannot be ordered by IC50: < 1 µM for the first, < 1 µM for the second.

`Cc1csc2c(-n3nc(Nc4cnc5c(c4)CC(NC4CCN(C)CC4)CC5)nc3N)nc(Cl)nc12` (stereo not drawn) [compound 51, 1-(2-chloro-7-methylthieno [3,2-d]pyrimidine-4-yl)-N^3-(6-(1-methyl-piperidin-4-ylamino)-5,6,7,8-tetrahydro-quinolin-3-yl)-1H-1,2,4-triazole-3,5-diamine] and `Cc1csc2c(-n3nc(Nc4cnc5c(c4)CC4(CC5)OCCO4)nc3N)nc(Cl)nc12` [compound 60, 1-(2-chloro-7-methylthieno [3,2-d]pyrimidin-4-yl)-N^3-(7′,8′-dihydro-5′H-spiro[[1,3]dioxolane-2,6′-quinoline]-3′-yl)-1H-1,2,4-triazole-3,5-diamine] cannot be ordered by IC50: < 1 µM for the first, < 1 µM for the second.

`Cc1cc(Nc2nc(N)n(-c3ncnc4sc5c(c34)CCC5)n2)cnc1N1CCC(N2CCCC2)CC1` [compound 54, 1-(6,7-dihydro-5H-cyclopenta [4,5]thieno[2,3-d]pyrimidin-4-yl)-N^3-(6-(4-(pyrrolidin-1-yl)piperidin-1-yl)-5-methyl-pyridin-3-yl)-1H-1,2,4-triazole-3,5-diamine] and `Cc1cc(Nc2nc(N)n(-c3ncnc4ccc(F)cc34)n2)cnc1N1CCC(N2CCCC2)CC1` [compound 56, 1-(6-fluoro-quinazolin-4-yl)-N^3-(6-(4-(pyrrolidin-1-yl)piperidin-1-yl)-5-methylpyridin-3-yl)-1H-1,2,4-triazole-3,5-diamine] cannot be ordered by IC50: < 1 µM for the first, < 1 µM for the second.

First: Cc1nc(-n2nc(Nc3cnc(N4CCC(N5CCCC5)CC4)c(C)c3)nc2N)c2ccccc2n1 [compound 55, 1-(2-methyl-quinazolin-4-yl)-N^3-(6-(4-(pyrrolidin-1-yl)piperidin-1-yl)-5-methylpyridin-3-yl)-1H-1,2,4-triazole-3,5-diamine]
Second: COc1cc2ncnc(-n3nc(Nc4ccc(Br)nc4)nc3NC(=NC#N)Nc3ccc(Br)nc3)c2cc1OC [compound 58, 1-(6,7-dimethoxy-quinazoline-4-yl)-N^3-(6-bromopyridin-3-yl)-5-(3-(6-bromopyridin-3-yl)-2-cyano-guanadino)-1H-1,2,4-triazole-3-amine]
The IC50 of the first is lower: < 1 µM for the first, 1 to 10 µM for the second.

Reference: US8796259B2, “N3-heteroaryl substituted triazoles and N5-heteroaryl substituted triazoles useful as axl inhibitors” (Rigel Pharmaceuticals, Inc., priority 2006, dated 2014)
